63 molecules from patent US20060252807A1, “Novel ortho-terphenyl inhibitors of p38 kinase and methods of treating inflammatory disorders” (Kalypsys, Inc., priority 2005, published 2006) can be followed below.

The IC50 is the concentration that inhibits the measured activity by half.

The target in the experiment is T1, active p38 alpha enzyme (Upstate Biotechnology) (Homo sapiens, UniProt Q16539).
T1 construct: purchased Upstate Biotechnology
T1 sequence (Q16539 whole entry): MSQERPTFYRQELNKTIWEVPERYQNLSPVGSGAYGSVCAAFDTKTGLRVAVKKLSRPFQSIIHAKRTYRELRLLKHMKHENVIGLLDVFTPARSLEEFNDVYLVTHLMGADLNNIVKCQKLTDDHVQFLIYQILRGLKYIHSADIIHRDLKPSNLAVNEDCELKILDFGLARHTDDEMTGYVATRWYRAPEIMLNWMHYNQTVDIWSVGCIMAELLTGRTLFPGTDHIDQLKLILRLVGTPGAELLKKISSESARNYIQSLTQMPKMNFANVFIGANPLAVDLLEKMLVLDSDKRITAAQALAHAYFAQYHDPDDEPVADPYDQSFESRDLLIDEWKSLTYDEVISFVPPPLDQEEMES
In words: p38α biochemical assay (ATP turnover, luminescent detection, Cambrex PKlight). The conditions noted are these: p38α biochemical assay, Table 1 Biological Activity. The gist of the method: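 Measures total ATP turnover by luminescence after human p38α phosphorylates full MapkapK2 protein. Final ATP is 1.4 uM, and incubation runs 2 hours at 30C. The buffer includes 100 mM MgCl2, 4 mM CaCl2 and 1 mg/ml BSA.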
As to `CC(C)NC(=O)c1csc(-c2oc(CN3CCN(C(=O)CCc4ccccc4Br)CC3)nc2-c2ccc(F)cc2)n1` [Example 546], the IC50 is more than 1 µM.

In the case of `CC(C)NC(=O)c1csc(-c2oc(CN3CCN(C(=O)CCc4cccc(Br)c4)CC3)nc2-c2ccc(F)cc2)n1` [Example 547], the IC50 was more than 1 µM.

The molecule `CC(C)NC(=O)c1csc(-c2oc(CN3CCN(C(=O)C4CCCCN4C(=O)OC(C)(C)C)CC3)nc2-c2ccc(F)cc2)n1` (stereo not drawn) [Example 548] yielded an IC50 of more than 1 µM.

Take `CC(C)NC(=O)c1csc(-c2oc(CN3CCN(C(=O)c4ccc(Oc5cccc(O)c5)cc4)CC3)nc2-c2ccc(F)cc2)n1` [Example 549]: the IC50 is more than 1 µM.

In turn, `COc1ccc2cc(C(C)C(=O)N3CCN(Cc4nc(-c5ccc(F)cc5)c(-c5nc(C(=O)NC(C)C)cs5)o4)CC3)ccc2c1` (stereo not drawn) [Example 550] registered an IC50 of more than 1 µM.

With `CC(C)NC(=O)c1csc(-c2oc(CN3CCN(C(=O)C4CN(C(=O)OC(C)(C)C)CCN4)CC3)nc2-c2ccc(F)cc2)n1` (stereo not drawn) [Example 551], the IC50 was more than 1 µM.

`CC(C)NC(=O)c1csc(-c2oc(CN3CCN(C(=O)C4CN(C(=O)OC(C)(C)C)CCN4)CC3)nc2-c2ccc(F)cc2)n1` (stereo not drawn) [Example 552] showed an IC50 of more than 1 µM.

With `COc1ccc(Br)c(C(=O)N2CCN(Cc3nc(-c4ccc(F)cc4)c(-c4nc(C(=O)NC(C)C)cs4)o3)CC2)c1` [Example 553], the IC50 is more than 1 µM.

With `CC(C)NC(=O)c1csc(-c2oc(CN3CCN(C(=O)C4CC(O)CN4C(=O)OC(C)(C)C)CC3)nc2-c2ccc(F)cc2)n1` (stereo not drawn) [Example 554], the IC50 was more than 1 µM.

Consider `CC(C)NC(=O)c1csc(-c2oc(CN3CCN(C(=O)C(C(C)C)N(C)C(=O)OC(C)(C)C)CC3)nc2-c2ccc(F)cc2)n1` (stereo not drawn) [Example 555], for which the IC50 is more than 1 µM.

With `CC(C)NC(=O)c1csc(-c2oc(CN3CCN(C(=O)c4ccc(C(F)(F)F)cc4[N+](=O)[O-])CC3)nc2-c2ccc(F)cc2)n1` [Example 556], the IC50 was more than 1 µM.

Regarding `CC(C)NC(=O)c1csc(-c2oc(CN3CCN(C(=O)c4cc(Br)ccc4Cl)CC3)nc2-c2ccc(F)cc2)n1` [Example 557], the IC50 is more than 1 µM.

For the molecule `CC(C)NC(=O)c1csc(-c2oc(CN3CCN(C(=O)c4ccc(Cl)c(Br)c4)CC3)nc2-c2ccc(F)cc2)n1` [Example 558], the IC50 is more than 1 µM.

For `CC(C)NC(=O)c1csc(-c2oc(CN3CCN(C(=O)c4ccccc4C(=O)c4ccc(O)cc4)CC3)nc2-c2ccc(F)cc2)n1` [Example 559], the IC50 was more than 1 µM.

The molecule `CC(C)NC(=O)c1csc(-c2oc(CN3CCN(C(=O)c4ccccc4C(=O)c4ccc(F)cc4)CC3)nc2-c2ccc(F)cc2)n1` [Example 560] yielded an IC50 of more than 1 µM.

Molecule `CC(C)NC(=O)c1csc(-c2oc(CN3CCN(C(=O)C(C)c4ccc(-c5ccccc5)c(F)c4)CC3)nc2-c2ccc(F)cc2)n1` (stereo not drawn) [Example 561] displayed an IC50 of more than 1 µM.

As for `CC(C)NC(=O)c1csc(-c2oc(CN3CCN(C(=O)C4CCCN4C(=O)OCc4ccccc4)CC3)nc2-c2ccc(F)cc2)n1` (stereo not drawn) [Example 564], the IC50 is more than 1 µM.

`CCC(C)C(NC(=O)OC(C)(C)C)C(=O)N1CCN(Cc2nc(-c3ccc(F)cc3)c(-c3nc(C(=O)NC(C)C)cs3)o2)CC1` (stereo not drawn) [Example 565]: the IC50 is more than 1 µM.

In turn, `CC(C)CC(NC(=O)OC(C)(C)C)C(=O)N1CCN(Cc2nc(-c3ccc(F)cc3)c(-c3nc(C(=O)NC(C)C)cs3)o2)CC1` (stereo not drawn) [Example 566] displayed an IC50 of more than 1 µM.

For the molecule `CC(C)NC(=O)c1csc(-c2oc(CN3CCN(C(=O)C(C)c4cccc(C(=O)c5ccccc5)c4)CC3)nc2-c2ccc(F)cc2)n1` (stereo not drawn) [Example 567], the IC50 was more than 1 µM.

`CC(C)NC(=O)c1csc(-c2oc(CN3CCN(C(=O)C(Cc4ccccc4)NC(=O)OC(C)(C)C)CC3)nc2-c2ccc(F)cc2)n1` (stereo not drawn) [Example 568]: the IC50 was more than 1 µM.

Molecule `CC(C)NC(=O)c1csc(-c2oc(CN3CCN(C(=O)C(Cc4ccccn4)NC(=O)OC(C)(C)C)CC3)nc2-c2ccc(F)cc2)n1` (stereo not drawn) [Example 569] showed an IC50 of more than 1 µM.

Take `CC(C)NC(=O)c1csc(-c2oc(CN3CCN(C(=O)C4Cc5ccccc5CN4C(=O)OC(C)(C)C)CC3)nc2-c2ccc(F)cc2)n1` (stereo not drawn) [Example 570]: the IC50 is more than 1 µM.

Molecule `CC(C)NC(=O)c1csc(-c2oc(CN3CCN(C(=O)C(Cc4ccc(O)cc4)NC(=O)OC(C)(C)C)CC3)nc2-c2ccc(F)cc2)n1` (stereo not drawn) [Example 571] returned an IC50 not above 1 µM.

The molecule `CC(C)NC(=O)c1csc(-c2oc(CN3CCNCC3)nc2-c2ccc(F)cc2)n1` [Example 572] registered an IC50 of more than 1 µM.

In turn, `CC(=O)NCc1onc(-c2ccc(F)cc2)c1-c1nc(C(=O)NC(C)C)cs1` [Example 573] gave an IC50 of more than 1 µM.

`CC(C)NC(=O)c1csc(-c2c(-c3ccc(F)cc3)noc2CNC(=O)C=O)n1` [Example 574] returned an IC50 of more than 1 µM.

The molecule `CC(C)NC(=O)c1csc(-c2c(-c3ccc(F)cc3)noc2CNC(=O)CC#N)n1` [Example 575] came in with an IC50 not above 1 µM.

`CC(C)NC(=O)c1csc(-c2c(-c3ccc(F)cc3)noc2CNC(=O)C(C)O)n1` (stereo not drawn) [Example 576] yielded an IC50 of more than 1 µM.

Turning to `CCC(=O)C(=O)NCc1onc(-c2ccc(F)cc2)c1-c1nc(C(=O)NC(C)C)cs1` [Example 577], the IC50 was more than 1 µM.

In turn, `CC(C)NC(=O)c1csc(-c2c(-c3ccc(F)cc3)noc2CNC(=O)C(C)(C)C)n1` [Example 578] displayed an IC50 of more than 1 µM.

For the molecule `CC(C)CC(=O)NCc1onc(-c2ccc(F)cc2)c1-c1nc(C(=O)NC(C)C)cs1` [Example 579], the IC50 is more than 1 µM.

With `CC(C)NC(=O)c1csc(-c2c(-c3ccc(F)cc3)noc2CNC(=O)c2cnc[nH]2)n1` [Example 580], the IC50 was more than 1 µM.

For the molecule `CC(C)NC(=O)c1csc(-c2c(-c3ccc(F)cc3)noc2CNC(=O)c2ncc[nH]2)n1` [Example 581], the IC50 is more than 1 µM.

For the molecule `CC(C)NC(=O)c1csc(-c2c(-c3ccc(F)cc3)noc2CNC(=O)C2=CCCC2)n1` [Example 582], the IC50 was more than 1 µM.

Take `CC(C)NC(=O)c1csc(-c2c(-c3ccc(F)cc3)noc2CNC(=O)C(F)(F)F)n1` [Example 583]: the IC50 is not above 1 µM.

The molecule `CC(C)NC(=O)c1csc(-c2c(-c3ccc(F)cc3)noc2CNC(=O)C2CCCO2)n1` (stereo not drawn) [Example 584] registered an IC50 of more than 1 µM.

The molecule `CC(=O)NCC(=O)NCc1onc(-c2ccc(F)cc2)c1-c1nc(C(=O)NC(C)C)cs1` [Example 585] yielded an IC50 of more than 1 µM.

As for `CC(C)NC(=O)c1csc(-c2c(-c3ccc(F)cc3)noc2CNC(=O)c2ccccc2)n1` [Example 586], the IC50 was more than 1 µM.

As to `CC(C)NC(=O)c1csc(-c2c(-c3ccc(F)cc3)noc2CNC(=O)c2cccnc2)n1` [Example 587], the IC50 was more than 1 µM.

Consider `CC(C)NC(=O)c1csc(-c2c(-c3ccc(F)cc3)noc2CNC(=O)c2ccncc2)n1` [Example 588], for which the IC50 was more than 1 µM.

The molecule `CC(C)NC(=O)c1csc(-c2c(-c3ccc(F)cc3)noc2CNC(=O)c2ccccn2)n1` [Example 589] registered an IC50 of more than 1 µM.

As to `CC(C)NC(=O)c1csc(-c2c(-c3ccc(F)cc3)noc2CNC(=O)C(O)CCl)n1` (stereo not drawn) [Example 590], the IC50 was not above 1 µM.

In turn, `Cc1cc(C(=O)NCc2onc(-c3ccc(F)cc3)c2-c2nc(C(=O)NC(C)C)cs2)n[nH]1` [Example 591] gave an IC50 of more than 1 µM.

Molecule `CC(C)NC(=O)c1csc(-c2c(-c3ccc(F)cc3)noc2CNC(=O)c2cn(C)cn2)n1` [Example 592] showed an IC50 of more than 1 µM.

Molecule `CC(C)NC(=O)c1csc(-c2c(-c3ccc(F)cc3)noc2CNC(=O)C2CCCCC2)n1` [Example 593] displayed an IC50 of more than 1 µM.

`CC(C)NC(=O)c1csc(-c2c(-c3ccc(F)cc3)noc2CNC(=O)c2cscn2)n1` [Example 594] returned an IC50 of more than 1 µM.

Take `CCOC(=O)CC(=O)NCc1onc(-c2ccc(F)cc2)c1-c1nc(C(=O)NC(C)C)cs1` [Example 595]: the IC50 is more than 1 µM.

Turning to `Cc1cccc(C(=O)NCc2onc(-c3ccc(F)cc3)c2-c2nc(C(=O)NC(C)C)cs2)c1` [Example 596], the IC50 was more than 1 µM.

Take `Cc1ccccc1C(=O)NCc1onc(-c2ccc(F)cc2)c1-c1nc(C(=O)NC(C)C)cs1` [Example 597]: the IC50 was more than 1 µM.

For `Cc1ccc(C(=O)NCc2onc(-c3ccc(F)cc3)c2-c2nc(C(=O)NC(C)C)cs2)cc1` [Example 598], the IC50 was more than 1 µM.

In turn, `CC(C)NC(=O)c1csc(-c2c(-c3ccc(F)cc3)noc2CNC(=O)c2cccc(O)c2)n1` [Example 599] came in with an IC50 of more than 1 µM.

Consider `CC(C)NC(=O)c1csc(-c2c(-c3ccc(F)cc3)noc2CNC(=O)c2ccccc2O)n1` [Example 600], for which the IC50 was more than 1 µM.

Molecule `CC(C)NC(=O)c1csc(-c2c(-c3ccc(F)cc3)noc2CNC(=O)c2ccc(F)cc2)n1` [Example 601] displayed an IC50 of more than 1 µM.

On to `CC(C)NC(=O)c1csc(-c2c(-c3ccc(F)cc3)noc2CNC(=O)c2cccc(F)c2)n1` [Example 602], for which the IC50 was more than 1 µM.

With `CCCCCCCC(=O)NCc1onc(-c2ccc(F)cc2)c1-c1nc(C(=O)NC(C)C)cs1` [Example 603], the IC50 is more than 1 µM.

With `CC(C)NC(=O)c1csc(-c2c(-c3ccc(F)cc3)noc2CNC(=O)c2ccc(C#N)cc2)n1` [Example 604], the IC50 is more than 1 µM.

`CC(C)NC(=O)c1csc(-c2c(-c3ccc(F)cc3)noc2CNC(=O)c2cccc(C#N)c2)n1` [Example 605] gave an IC50 of more than 1 µM.

With `CC(C)NC(=O)c1csc(-c2c(-c3ccc(F)cc3)noc2CNC(=O)/C=C/c2ccccc2)n1` [Example 606], the concentration for half-maximal inhibition (IC50) was more than 1 µM.

Regarding `CC(C)NC(=O)c1csc(-c2c(-c3ccc(F)cc3)noc2CNC(=O)c2ccccc2C=O)n1` [Example 607], the IC50 is more than 1 µM.

Molecule `CC(C)NC(=O)c1csc(-c2c(-c3ccc(F)cc3)noc2CNC(=O)c2ccc(C=O)cc2)n1` [Example 608] yielded an IC50 of more than 1 µM.

`Cc1ccc(C(=O)NCc2onc(-c3ccc(F)cc3)c2-c2nc(C(=O)NC(C)C)cs2)c(C)c1` [Example 609] registered an IC50 of more than 1 µM.

Consider `Cc1ccccc1CC(=O)NCc1onc(-c2ccc(F)cc2)c1-c1nc(C(=O)NC(C)C)cs1` [Example 610], for which the IC50 is more than 1 µM.
